Assay results reported in patent US9725414B2, “Fungicidal N-bicycloalkyl and N-tricycloalkyl pyrazole-4-(thio)carboxamide derivatives” (priority 2011, dated 2017).

How the values were obtained:
Pyrenophora teres [1] = test: Example F: in vivo preventive test on Pyrenophora teres (barley), acetone/tween/DMSO preparation; details: 500 ppm of active ingredient, barley, grading 14 days after contamination
In short: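 Barley ("Plaisant") grown at 22° C was sprayed at the 1-leaf stage (10 cm) with active ingredient in acetone/tween/DMSO/water, with solvent-only controls. After 24 h, leaves were inoculated with Pyrenophora teres spores (12 000 spores per mL) from 12-day cultures. % efficacy versus controls graded 14 days post-contamination.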

Puccinia recondita = test: Example M: in vivo preventive test on Puccinia recondita (brown rust on wheat); details: 500 ppm of active ingredient, grading 12 days after contamination
In short: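 Wheat (Scipion) sprayed with compound at 1-leaf stage, grown at 22° C. Inoculated 24 h later with a spore suspension at 100 000 spores per mL. Efficacy (%) graded 12 days after inoculation against solvent-treated controls.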

Uromyces appendiculatus = test: Example Q: in vivo preventive test on Uromyces appendiculatus (bean rust); details: Uromyces appendiculatus on bean plants, 500 ppm of active ingredient, grading 11 days after contamination
In short: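 Saxa bean plants at 2-leaf stage, grown at 24° C., sprayed preventively with compound; 24 h later inoculated with U. appendiculatus spores (150 000 spores per mL). Percent efficacy graded 11 days after inoculation versus solvent-treated controls.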

[2] = log P by HPLC on reversed-phase column (C 18), EEC Directive 79831 Annex V.A8; assay type: physicochemical; details: for logP: HPLC reversed-phase C 18, 40° C., 0.1% aqueous formic acid and acetonitrile gradient, several values = mixture of two or more isomers
In short: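 Reversed-phase C18 HPLC at 40° C, 0.1% aqueous formic acid/acetonitrile linear gradient 10% to 90% acetonitrile, per EEC Directive 79831 Annex V.A8. log P obtained from retention time by linear interpolation between unbranched alkan-2-ones (C3-C16) of known log P.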

Septoria tritici [3] = test: Example I: in vivo preventive test on Septoria tritici (wheat), acetone/tween/DMSO preparation; details: 500 ppm of active ingredient, grading 24 days after contamination
In short: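 Scipion wheat grown at 22° C, sprayed at 1-leaf stage (10 cm); controls received acetone/tween/DMSO/water without active. Inoculated 24 h later with S. tritici spores (500 000/mL), held 72 h at 18° C, 100% RH, then 21 days at 90% RH. % efficacy vs controls scored 24 days post-inoculation.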

Pyricularia oryzae = assay type: in vivo; details: Pyricularia oryzae on rice plants, preventive, 500 ppm of active ingredient, grading 6 days after contamination
Sphaerotheca fuliginea [4] = test: Example B: in vivo preventive test on Sphaerotheca fuliginea (powdery mildew on cucurbits), gherkin plants; details: 500 ppm of active ingredient, grading 12 days after contamination
In short: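 Gherkin plants grown at 24 °C were sprayed with compound at the Z11 cotyledon stage; controls received acetone/tween/DMSO/water without active. 24 h later, cotyledons were inoculated by spraying with Sphaerotheca fuliginea spores (100 000 spores per mL).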

Alternaria brassicae = test: Example D: in vivo preventive test on Alternaria brassicae (leaf spot on radish); details: 500 ppm of active ingredient, grading 6 days after contamination
Protocol: In Vivo Preventive Test on Alternaria brassicae (Leaf Spot on Radish) […] Radish plants (“Pernod Clair” variety), sown in starter cups on a 50/50 peat soil pozzolana substrate and grown at 17° C., are treated at the cotyledon stage by spraying with the active ingredient prepared as described above. Plants, used as controls, are treated with the mixture of acetone/tween/DMSO/water not containing the active material. After 24 hours, the plants are contaminated by spraying the cotyledons with an aqueous suspension of Alternaria brassicae spores (50 000 spores per mL). The spores are collected from a 15-day-old culture. The contaminated radish plants are incubated at 20° C. and at 100% relative humidity. Grading (% of efficacy) is carried out 6 days after the contamination, in comparison with the control plants.

Alternaria solani = test: Example C: in vivo preventive test on Alternaria solani (tomato); details: 500 ppm of active ingredient, evaluated 7 days after inoculation
In short: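 Young tomato plants sprayed preventively with compound formulated in DMF/emulsifier and diluted with water, then inoculated one day later with Alternaria solani spores. Plants were held one day at about 22° C, 100% humidity, then at about 20° C, 96% humidity.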

[5] = test system: Blumeria graminis f.sp. hordei; test: Example J: in vivo preventive test on Blumeria graminis (barley); details: 500 ppm of active ingredient, evaluated 7 days after inoculation
Protocol: (§1) In Vivo Preventive Test on Blumeria graminis (Barley) Solvent: 49 parts by weight of N,N-dimethylacetamide Emulsifier: 1 part by weight of alkylaryl polyglycol ether To produce a suitable preparation of active compound, 1 part by weight of active compound or active compound combination is mixed with the stated amounts of solvent and emulsifier, and the concentrate is diluted with water to the desired concentration. To test for preventive activity, young plants are sprayed with the preparation of active compound or active compound combination at the stated rate of application. After the spray coating has been dried, the plants are dusted with spores of Blumeria graminis f.sp. hordei.

Puccinia triticina = test: Example L: in vivo preventive test on Puccinia triticina (wheat); details: 500 ppm of active ingredient, evaluated 8 days after inoculation
Protocol: In Vivo Preventive Test on Puccinia triticina (Wheat)
Solvent: 49 parts by weight of N,N-dimethylacetamide
(§2) Emulsifier: 1 part by weight of alkylaryl polyglycol ether
To produce a suitable preparation of active compound, 1 part by weight of active compound or active compound combination is mixed with the stated amounts of solvent and emulsifier, and the concentrate is diluted with water to the desired concentration.
To test for preventive activity, young plants are sprayed with the preparation of active compound or active compound combination at the stated rate of application.
After the spray coating has been dried, the plants are sprayed with a spore suspension of Puccinia triticina.
The plants remain for 48 hours in an incubation cabinet at approximately 20° C. and a relative atmospheric humidity of approximately 100%.
The plants are placed in the greenhouse at a temperature of approximately 20° C. and a relative atmospheric humidity of approximately 80%.
The test is evaluated 8 days after the inoculation. 0% means an efficacy which corresponds to that of the untreated control, while an efficacy of 100% means that no disease is observed.

Venturia inaequalis = test: Example G: in vivo preventive test on Venturia inaequalis (apple scab); details: 100 ppm of active ingredient, evaluated 10 days after inoculation
Protocol: In Vivo Preventive Test on Venturia inaequalis (Apple Scab) Solvent: 24.5 parts by weight of acetone • 24.5 parts by weight of N,N-dimethylacetamide Emulsifier: 1 part by weight of alkylaryl polyglycol ether To produce a suitable preparation of active compound, 1 part by weight of active compound is mixed with the stated amounts of solvent and emulsifier, and the concentrate is diluted with water to the desired concentration. To test for preventive activity, young plants are sprayed with the preparation of active compound at the stated rate of application. After the spray coating has dried on, the plants are inoculated with an aqueous conidia suspension of the causal agent of apple scab (Venturia inaequalis) and then remain for 1 day in an incubation cabinet at approximately 20° C. and a relative atmospheric humidity of 100%. The plants are then placed in a greenhouse at approximately 21° C. and a relative atmospheric humidity of approximately 90%.

Sphaerotheca fuliginea [6] = test: Example A: in vivo preventive test on Sphaerotheca fuliginea (cucumber); details: 500 ppm of active ingredient, evaluated 7 days after inoculation
Protocol: In Vivo Preventive Test on Sphaerotheca fuliginea (Cucumber) Solvent: 49 parts by weight of N,N-dimethylformamide Emulsifier: 1 part by weight of alkylarylpolyglycolether To produce a suitable preparation of active compound, 1 part by weight of active compound is mixed with the stated amounts of solvent and emulsifier, and the concentrate is diluted with water to the desired concentration. To test for preventive activity, young plants are sprayed with the preparation of active compound at the stated rate of application. One day after this treatment, the plants are inoculated with an aqueous spore suspension of Sphaerotheca fuliginea. Then the plants are placed in a greenhouse at approximately 23° C. and a relative atmospheric humidity of approximately 70%.

Botrytis cinerea = test: Example O: in vivo protective test on Botrytis cinerea (beans); details: 100 ppm of active ingredient, lesion size 2 days after inoculation
Protocol: In Vivo Protective Test on Botrytis cinerea (Beans)
Solvent: 24.5 parts by weight of acetone • 24.5 parts by weight of N,N-dimethylacetamide
as §2
To produce a suitable preparation of active compound, 1 part by weight of active compound is mixed with the stated amounts of solvent and emulsifier, and the concentrate is diluted with water to the desired concentration.
To test for preventive activity, young plants are sprayed with the preparation of active compound. After the spray coating has dried on, 2 small pieces of agar covered with growth of Botrytis cinerea are placed on each leaf. The inoculated plants are placed in a darkened chamber at 20° C. and a relative atmospheric humidity of 100%.
2 days after the inoculation, the size of the lesions on the leaves is evaluated. 0% means an efficacy which corresponds to that of the untreated control, while an efficacy of 100% means that no disease is observed.

Septoria tritici [7] = test: Example H: in vivo preventive test on Septoria tritici (wheat), N,N-dimethylacetamide/emulsifier preparation; details: 500 ppm of active ingredient, evaluated 21 days after inoculation
Protocol: as §1, with “Septoria tritici (Wheat)” for “Blumeria graminis (Barley)”, “sprayed” for “dusted”, “a spore suspension” for “spores”, “Septoria tritici. The plants remain for 48 hours in an incubation cabinet at approximately 20° C. and a relative atmospheric humidity of approximately 100% and afterwards for 60 hours at approximately 15° C. in a translucent incubation cabinet at a relative atmospheric humidity of approximately 100%.” for “Blumeria graminis f.sp. hordei.”

Pyrenophora teres [8] = test: Example E: in vivo preventive test on Pyrenophora teres (barley), DMF/emulsifier preparation; details: 500 ppm of active ingredient, evaluated 7-9 days after inoculation
In short: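 Young barley plants sprayed preventively with compound formulated in DMF/alkylaryl polyglycol ether emulsifier and diluted in water. One day later inoculated with aqueous Pyrenophora teres spore suspension, then held 48 h at 22 °C and 100% relative humidity.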

[9] = test system: Fusarium nivale (var. majus); test: Example N: in vivo preventive test on Fusarium nivale (wheat); details: 500 ppm of active ingredient, evaluated 5 days after inoculation
Protocol: as §1, with “Fusarium nivale (Wheat)” for “Blumeria graminis (Barley)”, “slightly injured by using a sandblast and afterwards they are sprayed” for “dusted”, “a conidia suspension” for “spores”, “Fusarium nivale (var. majus). The plants are placed in the greenhouse under a translucent incubation cabinet at a temperature of approximately 10° C. and a relative atmospheric humidity of approximately 100%.” for “Blumeria graminis f.sp. hordei.”

Leptosphaeria nodorum = test: Example K: in vivo preventive test on Leptosphaeria nodorum (wheat); details: 500 ppm of active ingredient, evaluated 8 days after inoculation
Protocol: as §1, with “Leptosphaeria nodorum (Wheat)” for “Blumeria graminis (Barley)”, “sprayed” for “dusted”, “a spore suspension” for “spores”, “Leptosphaeria nodorum. The plants remain for 48 hours in an incubation cabinet at approximately 20° C. and a relative atmospheric humidity of approximately 100%.” for “Blumeria graminis f.sp. hordei.”

Row | Compound | Efficacy (Pyrenophora teres [1]) | Efficacy (Puccinia recondita) | Efficacy (Uromyces appendiculatus) | logP [2] | Efficacy (Septoria tritici [3]) | Efficacy (Pyricularia oryzae) | Efficacy (Sphaerotheca fuliginea [4]) | Efficacy (Alternaria brassicae) | Efficacy (Alternaria solani) | Efficacy [5] | Efficacy (Puccinia triticina) | Efficacy (Venturia inaequalis) | Efficacy (Sphaerotheca fuliginea [6]) | Efficacy (Botrytis cinerea) | Efficacy (Septoria tritici [7]) | Efficacy (Pyrenophora teres [8]) | Efficacy [9] | Efficacy (Leptosphaeria nodorum) | chromatographic logP [2]
1 | CON(C(=O)c1cn(C)nc1C(F)F)C1CCC2CCCCC21 (stereo not drawn) [Example 11] | 100% | 94% | 100% | 3.50 | 71% | 92% | 100% | 100% | – | – | – | – | – | – | – | – | – | – | –
2 | CC1CC(C)(C)C2CCCC(NC(=O)c3c(C(F)F)nn(C)c3F)C12 (stereo not drawn) [Example 14] | – | – | – | 4.29 | – | – | – | – | 100% | 90% | 83% | 99% | 98% | 100% | 75% | 100% | 88% | – | –
3 | Cn1nc(C(F)F)c(C(=O)N(CC2(Cc3ccccc3)CC3CCC2C3)C2CC2)c1Cl (stereo not drawn) [Example 68] | – | 75% | – | 5.06 | 71% | 80% | 98% | – | – | – | – | – | – | – | – | – | – | – | –
4 | CC(C1CC2CCC1C2)N(C(=O)c1cn(C)nc1C(F)F)C1CC1 (stereo not drawn) [Example 94] | – | – | – | 3.52 | – | – | – | – | 100% | 89% | – | 100% | 100% | 100% | 100% | 100% | 100% | 80% | –
5 | CC(C1CC2CCC1C2)N(C(=S)c1c(C(F)F)nn(C)c1F)C1CC1 (stereo not drawn) [Example 97] | – | – | – | 4.47 | – | – | – | – | 95% | – | – | 98% | 100% | 100% | – | 100% | – | – | –
6 | Cc1nn(C)c(F)c1C(=O)N(C1CC1)C(C)C12CC3CC(CC(C3)C1)C2 (stereo not drawn) [Example 103, N-[1-(adamantan-1-yl)ethyl]-N-cyclopropyl-5-fluoro-1,3-dimethyl-1H-pyrazole-4-carboxamide] | – | – | – | – | – | – | – | – | 100% | – | – | 100% | 96% | 99% | 100% | 100% | – | – | 4.3
7 | CCc1nn(C)c(F)c1C(=O)N(C1CC1)C(C)C12CC3CC(CC(C3)C1)C2 (stereo not drawn) [Example 104] | – | – | – | 4.86 | – | – | – | – | 95% | 78% | – | – | 96% | – | 90% | 95% | – | 83% | –
8 | CC(N(C(=O)c1cn(C)nc1C(F)F)C1CC1)C12CC3CC(CC(C3)C1)C2 (stereo not drawn) [Example 105] | – | – | – | 4.30 | – | – | – | – | 95% | – | – | 100% | 100% | 100% | 80% | 100% | – | – | –
